Reference: patent publication US20180303845A1, “USE OF TLR8 AGONISTS TO TREAT CANCER” (VentiRx Pharmaceuticals, Inc., priority 2015, published 2018)

Key:
[1] = system: recurrent or metastatic SCCHN; conditions: cited from earlier work
HNC = conditions: cited from earlier work
EGFR^| UM-22B HNC cells = assay: 51Cr release assay of cetuximab-mediated ADCC by motolimod-pre-treated PBMC or isolated NK; assay type: cell-based
Protocol: (§1) PBMC cytokine release was also measured using a multiplex cytokine assay. FcγR III-158 genotype was determined using a quantitative PCR-based assay kit. Significant differences in ADCC by FcγR Ma or TLR8 genotype were determined using a Kruskal-Wallis one-way analysis of variance, and a post hoc Mann-Whitney non-parametric t test was performed for differences between groups. For cytokine analysis, a Mann-Whitney non-parametric test was performed.

PBMC = PBMC cytokine release, multiplex cytokine assay; assay type: cell-based
Protocol: as §1

For `CCCN(CCC)C(=O)C1=Cc2ccc(-c3ccc(C(=O)N4CCCC4)cc3)cc2N=C(N)C1` [motolimod, 2-amino-N,N-dipropyl-8-[4-(pyrrolidin-1-ylcarbonyl)phenyl]-3H-1-benzazepine-4-carboxamide], the “clinical activity (pharmacologic evidence)” value ([1]; in combination with cetuximab, escalating doses of motolimod) is listed as “dose-dependent clinical activity”, the safety profile ([1]; motolimod days 1, 8, 15 in combination with weekly cetuximab, 28-day cycles) is listed as “acceptable safety profile” and the “cetuximab-mediated ADCC and DC IVS of CD8^+ T cells in HNC” value (HNC; in vitro) is listed as “significantly enhances”. For the same molecule, the “DC maturation and cross-priming of CD8^+ cells” value (HNC; motolimod in combination with cetuximab) was “enhances”, the “cetuximab-mediated ADCC by TLR8 stimulated PBMC from HNC patients” value (EGFR^| UM-22B HNC cells; PBMC from HNC patients, p=0.0262) was “more avid effectors” and the “enhancement of ADCC lytic activity in NK, FcγR IIIc FF genotype” value (EGFR^| UM-22B HNC cells; motolimod 250 nM 18 hr pre-treatment, cetuximab 10 μg/mL, 4 hr, FF genotype) was 2.6 fold. For the same molecule, the “enhancement of ADCC lytic activity in NK, VF genotype” value (EGFR^| UM-22B HNC cells; motolimod 250 nM 18 hr pre-treatment, cetuximab 10 μg/mL, 4 hr, VF genotype) was 1.7 fold, the “enhancement of ADCC lytic activity in NK, VV genotype” value (EGFR^| UM-22B HNC cells; motolimod 250 nM 18 hr pre-treatment, cetuximab 10 μg/mL, 4 hr, VV genotype) was 1.8 fold and the “cetuximab-mediated ADCC against HNC cells” value (EGFR^| UM-22B HNC cells; summary statement) was “enhanced”. For the same molecule, the “IFN-γ secretion, treated versus untreated PBMC” value (PBMC; p<0.0001) was “significantly higher levels”, the “TNF-α secretion, treated versus untreated PBMC” value (PBMC; p<0.0001) was “significantly higher levels” and the “IL-12p40 secretion, treated versus untreated PBMC” value (PBMC; p=0.0002) was “significantly higher levels”. The “IL-12p70 secretion, treated versus untreated PBMC” value (PBMC; p=0.03) was “significantly higher levels”.
